# Results: BindingDB's records for doi:10.1021/jm970389+ (Abbott Laboratories, 1998)
# Key:
# [1] = Binding potency against Platelet activating factor (PAF) receptor using [3H]C18-PAF as radioligand on rabbit platelet membranes
# [2] = The compound was evaluated for its binding affinity against PAF receptor in rabbit platelet
Compound,Ki [1] [nM],Ki [2] [nM]
"Cc1nc2cnccc2n1Cc1ccc(C(=O)c2cn(C(=O)N(C)C)c3ccccc23)cc1 [3-[4-(2-Methyl-imidazo[4,5-c]pyridin-1-ylmethyl)-benzoyl]-indole-1-carboxylic acid dimethylamide]",6.8,
"Cc1[nH]c2ccccc2c1C(=O)c1ccc(Cn2c(C)nc3cnccc32)cc1 [[4-(2-Methyl-imidazo[4,5-c]pyridin-1-ylmethyl)-phenyl]-(2-methyl-1H-indol-3-yl)-methanone]",48,
"Cc1nc2cnccc2n1CC(=O)c1cn(C(=O)N(C)C)c2cc(-c3ccc(F)cc3)ccc12 [6-(4-Fluoro-phenyl)-3-[2-(2-methyl-imidazo[4,5-c]pyridin-1-yl)-acetyl]-indole-1-carboxylic acid dimethylamide]",> 1000,
"CC(=O)OC[n+]1cccc([C@H]2SCc3c(C(=O)c4cn(C(=O)N(C)C)c5cc(-c6ccc(F)cc6)ccc45)ccn32)c1 [1-Acetoxymethyl-3-{(R)-7-[1-dimethylcarbamoyl-6-(4-fluoro-phenyl)-1H-indole-3-carbonyl]-1H-pyrrolo[1,2-c]thiazol-3-yl}-pyridinium; chloride]",,3.8
"CNC(=O)n1cc(C(=O)c2ccc(Cn3c(C)nc4cnccc43)cc2)c2c(C(=O)OC)cccc21 [1-Methylcarbamoyl-3-[4-(2-methyl-imidazo[4,5-c]pyridin-1-ylmethyl)-benzoyl]-1H-indole-4-carboxylic acid methyl ester]",1.5,
"COC(=O)c1cccc2c1c(C(=O)c1ccc(Cn3c(C)nc4cnccc43)cc1)cn2C(N)=O [1-Carbamoyl-3-[4-(2-methyl-imidazo[4,5-c]pyridin-1-ylmethyl)-benzoyl]-1H-indole-4-carboxylic acid methyl ester]",1.5,
"Cc1nc2cnccc2n1-c1ccc(C(=O)c2cn(C(=O)N(C)C)c3cc(-c4ccc(F)cc4)ccc23)cc1 [6-(4-Fluoro-phenyl)-3-[4-(2-methyl-imidazo[4,5-c]pyridin-1-yl)-benzoyl]-indole-1-carboxylic acid dimethylamide]",260,
"Cc1nc2ncccc2n1Cc1ccc(C(=O)c2cn(C(=O)N(C)C)c3cccc(Cl)c23)cc1 [4-Chloro-3-[4-(2-methyl-imidazo[4,5-b]pyridin-1-ylmethyl)-benzoyl]-indole-1-carboxylic acid dimethylamide]",0.9,
"Cc1nc2cnccc2n1Cc1ccc(C(=O)c2cn(C(=O)N(C)C)c3ccc(-c4ccc(F)cc4)cc23)cc1 [5-(4-Fluoro-phenyl)-3-[4-(2-methyl-imidazo[4,5-c]pyridin-1-ylmethyl)-benzoyl]-indole-1-carboxylic acid dimethylamide]",190,
"COC(=O)c1cc(-c2ccc(F)cc2)cc2c1c(C(=O)c1ccc(Cn3c(C)nc4cnccc43)cc1)cn2C(=O)N(C)C [1-Dimethylcarbamoyl-6-(4-fluoro-phenyl)-3-[4-(2-methyl-imidazo[4,5-c]pyridin-1-ylmethyl)-benzoyl]-1H-indole-4-carboxylic acid methyl ester]",0.15,
COC(=O)c1cccc2c1c(C(=O)c1ccc(Cn3c(C)nc4ccccc43)cc1)cn2C(=O)N1CCCC1 [3-[4-(2-Methyl-benzoimidazol-1-ylmethyl)-benzoyl]-1-(pyrrolidine-1-carbonyl)-1H-indole-4-carboxylic acid methyl ester],1.7,
"COC(=O)c1cccc2c1c(C(=O)c1ccc(Cn3c(C)nc4ncccc43)cc1)cn2C(=O)N(C)C [1-Dimethylcarbamoyl-3-[4-(2-methyl-imidazo[4,5-b]pyridin-1-ylmethyl)-benzoyl]-1H-indole-4-carboxylic acid methyl ester]",2.9,
"C#Cc1cccc2c1c(C(=O)c1ccc(Cn3c(C)nc4cnccc43)cc1)cn2C(=O)N(C)C [4-Ethynyl-3-[4-(2-methyl-imidazo[4,5-c]pyridin-1-ylmethyl)-benzoyl]-indole-1-carboxylic acid dimethylamide]",1.3,
